This is an account of results in patent US9758524B2, “4-imidazopyridazin-1-yl-benzamides as Btk inhibitors” (Merck Sharp & Dohme B.V., priority 2011, dated 2017).

For one assay, the target named is Src enzyme (Homo sapiens (Human), UniProt P12931). As to the kind of experiment: Src enzyme activity (IMAP fluorescence polarization assay). The conditions noted are these: read-out: EC50 Src activity values; IMAP, 60 min pre-incubation, 4 μM ATP. On the technique in general: Polarisation of emitted light reports the rotation of a fluorescent probe.
The target of the next assay is FynT enzyme (Homo sapiens (Human), UniProt P06241). The assay can be described thus: FynT enzyme activity (IMAP fluorescence polarization assay). It is filed as biochemical. As to conditions: 60 min pre-incubation, 0.2 μM ATP. As to the method: FynT enzyme activity is measured using the IMAP (immobilized metal ion affinity-based fluorescence polarization) assay as outlined below.
Test compounds and FynT enzyme are pre-incubated 60 minutes at room temperature, before adding 5 μL/well of 400 nM Fluorescin labeled substrate peptide (p34cdc2 substrate peptide, e.g. #R7157/#R7172, Molecular Devices) in KR-buffer. Final peptide substrate concentration in assay is 100 nM. […] Following incubation for 2 h at room temperature the enzyme reaction is stopped by adding 40 μL/well IMAP Progressive Binding Solution (according to suppliers (Molecular Devices) protocol using 75% 1× buffer A and 25% 1× buffer B with 1:600 Progressive Binding Solution). After 60 min incubation at room temperature in the dark the FP signal is read. […] Values are calculated as percentage of the difference in readout (ΔmPi) of the controls with and without ATP. EC50 values are determined by curve fitting of the experimental results using Activity Base.

The next assay concerns the target Lyn enzyme (Homo sapiens (Human), UniProt P07948). As to the kind of experiment: Lyn enzyme activity (IMAP fluorescence polarization assay).
Another assay concerns the target Lck enzyme (Homo sapiens (Human), UniProt P06239). As to the kind of experiment: Lck enzyme activity (IMAP fluorescence polarization assay). The conditions noted are these: for EC50: read-out: EC50 Lck activity values.
For a further assay, the target named is Btk enzyme (His-Btk) (Homo sapiens (Human), UniProt Q06187). As to the kind of experiment: Btk enzyme activity (IMAP fluorescence polarization assay). As to conditions: for EC50: read-out: EC50 Btk activity values; for EC50 / EC50 Btk activity values: IMAP, 60 min pre-incubation, 5 μM ATP.
Setting [1] is: read-out: EC50 Lyn activity values, 60 min pre-incubation, 2 μM ATP, bin bound in μM.
Where [2] appears, read: IMAP, 60 min pre-incubation, 6 μM ATP, bin bound in μM.

pEC50: −log10 of the molar value. Where two headings read alike, the source gives them in different places. A value given as a limit tells only on which side of the number the result lay.

Chain of Lck enzyme (P06239 whole entry): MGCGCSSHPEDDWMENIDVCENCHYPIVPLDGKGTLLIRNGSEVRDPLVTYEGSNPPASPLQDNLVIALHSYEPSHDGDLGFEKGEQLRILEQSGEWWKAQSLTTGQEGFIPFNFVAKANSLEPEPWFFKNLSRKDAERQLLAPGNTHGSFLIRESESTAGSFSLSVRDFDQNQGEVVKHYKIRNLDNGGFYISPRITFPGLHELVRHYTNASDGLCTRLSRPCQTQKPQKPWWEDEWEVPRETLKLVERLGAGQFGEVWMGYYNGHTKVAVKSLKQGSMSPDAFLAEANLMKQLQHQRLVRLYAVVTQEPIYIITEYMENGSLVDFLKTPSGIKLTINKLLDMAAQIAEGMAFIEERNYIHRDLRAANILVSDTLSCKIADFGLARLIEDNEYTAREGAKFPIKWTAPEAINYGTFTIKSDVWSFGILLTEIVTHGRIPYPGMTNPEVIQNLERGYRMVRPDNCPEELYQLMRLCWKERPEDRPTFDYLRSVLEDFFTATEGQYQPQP
Chain of Lyn enzyme (P07948 whole entry): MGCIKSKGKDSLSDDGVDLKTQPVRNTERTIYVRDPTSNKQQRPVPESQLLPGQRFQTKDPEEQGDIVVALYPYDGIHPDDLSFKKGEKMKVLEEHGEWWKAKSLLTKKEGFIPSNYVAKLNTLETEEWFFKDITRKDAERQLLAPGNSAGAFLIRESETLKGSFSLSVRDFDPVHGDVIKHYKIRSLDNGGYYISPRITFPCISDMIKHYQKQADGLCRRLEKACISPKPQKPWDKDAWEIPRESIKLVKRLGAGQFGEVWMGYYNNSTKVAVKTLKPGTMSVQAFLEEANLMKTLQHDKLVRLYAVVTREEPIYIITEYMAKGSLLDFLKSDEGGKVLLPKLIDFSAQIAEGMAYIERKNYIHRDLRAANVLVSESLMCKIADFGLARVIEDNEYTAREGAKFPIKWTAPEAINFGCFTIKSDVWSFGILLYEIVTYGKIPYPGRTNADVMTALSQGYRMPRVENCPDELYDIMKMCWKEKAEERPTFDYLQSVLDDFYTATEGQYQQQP
Chain of Btk enzyme (His-Btk) (Q06187 whole entry): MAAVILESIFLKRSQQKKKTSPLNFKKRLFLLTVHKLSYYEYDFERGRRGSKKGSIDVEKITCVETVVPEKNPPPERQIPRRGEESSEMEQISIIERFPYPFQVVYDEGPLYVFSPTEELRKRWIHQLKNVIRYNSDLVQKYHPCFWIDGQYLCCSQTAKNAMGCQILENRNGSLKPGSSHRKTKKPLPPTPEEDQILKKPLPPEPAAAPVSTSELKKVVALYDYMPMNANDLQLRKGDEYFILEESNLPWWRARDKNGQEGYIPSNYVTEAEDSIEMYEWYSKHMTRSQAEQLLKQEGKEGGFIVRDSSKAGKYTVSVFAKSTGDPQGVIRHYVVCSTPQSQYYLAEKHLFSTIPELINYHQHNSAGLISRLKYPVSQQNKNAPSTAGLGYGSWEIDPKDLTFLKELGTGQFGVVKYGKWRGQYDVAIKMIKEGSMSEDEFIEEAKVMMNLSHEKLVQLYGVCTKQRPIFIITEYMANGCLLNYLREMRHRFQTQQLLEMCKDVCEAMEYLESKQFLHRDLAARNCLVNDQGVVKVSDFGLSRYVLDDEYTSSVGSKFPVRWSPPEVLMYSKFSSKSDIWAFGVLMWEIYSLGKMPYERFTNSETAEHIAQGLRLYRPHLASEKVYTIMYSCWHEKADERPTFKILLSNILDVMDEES
Chain of Src enzyme (P12931 whole entry, looked up): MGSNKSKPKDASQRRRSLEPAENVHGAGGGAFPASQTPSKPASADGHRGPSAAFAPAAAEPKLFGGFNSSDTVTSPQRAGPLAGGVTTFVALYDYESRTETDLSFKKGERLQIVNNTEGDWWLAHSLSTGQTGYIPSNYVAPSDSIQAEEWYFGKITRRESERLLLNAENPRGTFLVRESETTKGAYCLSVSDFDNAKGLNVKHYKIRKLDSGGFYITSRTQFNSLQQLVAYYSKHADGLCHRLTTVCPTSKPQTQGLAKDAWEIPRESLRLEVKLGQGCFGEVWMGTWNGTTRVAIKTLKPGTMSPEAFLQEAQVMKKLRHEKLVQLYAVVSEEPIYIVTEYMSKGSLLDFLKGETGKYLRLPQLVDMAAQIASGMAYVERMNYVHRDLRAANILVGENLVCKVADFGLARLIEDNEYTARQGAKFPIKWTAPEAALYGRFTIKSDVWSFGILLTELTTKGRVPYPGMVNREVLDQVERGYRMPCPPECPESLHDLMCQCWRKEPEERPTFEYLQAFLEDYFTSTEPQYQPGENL
Chain of FynT enzyme (P06241 other isoform, or with tags, fused parts or gaps): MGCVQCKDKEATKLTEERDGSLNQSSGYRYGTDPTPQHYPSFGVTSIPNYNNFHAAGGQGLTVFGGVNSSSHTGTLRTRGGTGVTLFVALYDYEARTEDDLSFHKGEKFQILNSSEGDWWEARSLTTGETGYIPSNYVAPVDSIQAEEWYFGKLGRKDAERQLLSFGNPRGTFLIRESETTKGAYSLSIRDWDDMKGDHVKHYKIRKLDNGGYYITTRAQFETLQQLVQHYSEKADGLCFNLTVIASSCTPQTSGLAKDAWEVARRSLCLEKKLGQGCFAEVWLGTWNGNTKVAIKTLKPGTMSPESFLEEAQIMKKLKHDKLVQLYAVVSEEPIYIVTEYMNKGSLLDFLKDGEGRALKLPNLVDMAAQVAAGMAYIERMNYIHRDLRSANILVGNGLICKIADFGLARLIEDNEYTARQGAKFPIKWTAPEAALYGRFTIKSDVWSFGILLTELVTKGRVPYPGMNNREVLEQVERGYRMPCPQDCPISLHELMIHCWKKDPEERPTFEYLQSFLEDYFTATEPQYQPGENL

As for `CC#CC(=O)N1CCCC[C@H]1c1nc(-c2ccc(C(=O)Nc3ncc(CC)s3)cc2)c2c(N)nccn12` [Example 116, (S)-4-(8-amino-3-(1-but-2-ynoylpiperidin-2-yl)imidazo[1,5-a]pyrazin-1-yl)-N-(5-ethylthiazol-2-yl)benzamide], the pEC50 at Src enzyme and on FynT enzyme was not above 6.00 in each case. Moreover, the EC50 – broadly, the concentration giving half of the maximal effect – on Lyn enzyme (setting [1]) is not below 1 µM; on Lck enzyme (setting [2]) it was not below 1 µM; at Btk enzyme (His-Btk) (bin bound in nM) it was less than 10 nM.
For `C=CC(=O)N1CCC[C@H]1c1nc(-c2ccc(C(=O)Nc3cc(C#N)ccn3)cc2)c2c(N)nccn12` [Example 122, (S)-4-(3-(1-acryloylpyrrolidin-2-yl)-8-aminoimidazo[1,5-a]pyrazin-1-yl)-N-(4-cyanopyridin-2-yl)benzamide], the results for the pEC50 at Src enzyme, at FynT enzyme and at Lck enzyme were not above 6.00, not above 6.00 and 6.00 to 7.00, respectively. The EC50 on Lyn enzyme (setting [1]) is not below 1 µM; at Btk enzyme (His-Btk) (bin bound in nM) it was less than 10 nM. Further, on Lck enzyme (setting [2]), the “EC50 Lck activity values” is less than 1 µM.
Turning to `Nc1nccn2c([C@@H]3CCCN3C(=O)c3cc(Cl)ncn3)nc(-c3ccc(C(=O)Nc4ccccn4)cc3)c12` [Example 33, (S)-4-(8-Amino-3-(1-(6-chloropyrimidine-4-carbonyl)pyrrolidin-2-yl)imidazo[1,5-a]pyrazin-1-yl)-N-(pyridin-2-yl)benzamide], the pEC50 on Src enzyme and on FynT enzyme was not above 6.00 in each case. The EC50 on Lyn enzyme (setting [1]) is not below 1 µM; at Lck enzyme (setting [2]), not below 1 µM; at Btk enzyme (His-Btk) (bin bound in nM), less than 10 nM.
As for `CC#CC(=O)N1CCCC[C@H]1c1nc(-c2ccc(C(=O)Nc3cccnn3)cc2)c2c(N)nccn12` [Example 23, (S)-4-(8-Amino-3-(1-but-2-ynoylpiperidin-2-yl)imidazo[1,5-a]pyrazin-1-yl)-N-(pyridazin-3-yl)benzamide], the pEC50 on Src enzyme and at FynT enzyme was not above 6.00 throughout. In addition, the EC50 on Lyn enzyme (setting [1]) was not below 1 µM; at Lck enzyme (setting [2]), not below 1 µM; on Btk enzyme (His-Btk) (bin bound in nM), less than 10 nM.
Regarding `CC#CC(=O)N1CCCC[C@H]1c1nc(-c2ccc(C(=O)Nc3cc(CCC)ccn3)c(F)c2)c2c(N)nccn12` [Example 67, (S)-4-(8-amino-3-(1-but-2-ynoylpiperidin-2-yl)imidazo[1,5-a]pyrazin-1-yl)-2-fluoro-N-(4-propylpyridin-2-yl)benzamide], the pEC50 on Src enzyme and at FynT enzyme was not above 6.00 throughout. The EC50 is not below 1 µM at Lyn enzyme (setting [1]), not below 1 µM at Lck enzyme (setting [2]) and less than 10 nM on Btk enzyme (His-Btk) (bin bound in nM).
As for `CC#CC(=O)N1CCCC[C@H]1c1nc(-c2ccc(C(=O)Nc3cc(C(F)(F)F)ccn3)cc2)c2c(N)nccn12` [Example 63, (S)-4-(8-amino-3-(1-but-2-ynoylpiperidin-2-yl)imidazo[1,5-a]pyrazin-1-yl)-N-(4-(trifluoromethyl)pyridin-2-yl)benzamide], the pEC50 on Src enzyme and at FynT enzyme was not above 6.00 throughout. The EC50 was not below 1 µM at Lyn enzyme (setting [1]), not below 1 µM on Lck enzyme (setting [2]) and less than 10 nM at Btk enzyme (His-Btk) (bin bound in nM).
Turning to `COC/C=C/C(=O)NCc1nc(-c2ccc(C(=O)Nc3ccccn3)cc2)c2c(N)nccn12` [Example 95, (E)-4-(8-amino-3-((4-methoxybut-2-enamido)methyl)imidazo[1,5-a]pyrazin-1-yl)-N-(pyridin-2-yl)benzamide], the negative logarithm of the EC50 (pEC50) (usually −log10 of the EC50, conventionally taken in molar units) on Src enzyme is not above 6.00; on FynT enzyme it was not above 6.00; at Btk enzyme (His-Btk), 7.00 to 8.00. For the same compound, the EC50 at Lyn enzyme (setting [1]) and on Lck enzyme (setting [2]) was not below 1 µM in each case. In addition, the “EC50 Btk activity values” at Btk enzyme (His-Btk) (bin bound in nM) is given as less than 100 nM.
As for `COC/C=C/C(=O)N1CCCC[C@H]1c1nc(-c2ccc(C(=O)Nc3cccnn3)cc2)c2c(N)nccn12` [Example 72, (S,E)-4-(8-amino-3-(1-(4-methoxybut-2-enoyl)piperidin-2-yl)imidazo[1,5-a]pyrazin-1-yl)-N-(pyridazin-3-yl)benzamide], the pEC50 at Src enzyme is not above 6.00; at FynT enzyme it was not above 6.00; at Btk enzyme (His-Btk), 6.00 to 7.00. Further, the EC50 on Lyn enzyme (setting [1]) and on Lck enzyme (setting [2]) was not below 1 µM in each case. In addition, the “EC50 Btk activity values” on Btk enzyme (His-Btk) (bin bound in μM) is less than 1000 nM.
Take `CC#CC(=O)N1CCCC[C@H]1c1nc(-c2ccc(C(=O)Nc3nccc(C)n3)cc2)c2c(N)nccn12` [Example 89, (S)-4-(8-amino-3-(1-but-2-ynoylpiperidin-2-yl)imidazo[1,5-a]pyrazin-1-yl)-N-(4-methylpyrimidin-2-yl)benzamide]: the pEC50 was not above 6.00 on Src enzyme, not above 6.00 on FynT enzyme and 7.00 to 8.00 on Btk enzyme (His-Btk). In addition, the EC50 on Lyn enzyme (EC50 Lyn activity values, 60 min pre-incubation, 2 μM ATP, bin bound in μM) was not below 1 µM; at Lck enzyme (setting [2]) it was not below 1 µM. Also, the “EC50 Btk activity values” on Btk enzyme (His-Btk) (bin bound in nM) is reported as less than 100 nM.
On to `C=CC(=O)N1CCC[C@H]1c1nc(-c2ccc(C(=O)Nc3nccs3)cc2)c2c(N)nccn12` [Example 101, (S)-4-(3-(1-acryloylpyrrolidin-2-yl)-8-aminoimidazo[1,5-a]pyrazin-1-yl)-N-(thiazol-2-yl)benzamide], for which the pEC50 at Src enzyme and at FynT enzyme was not above 6.00 throughout. The EC50 at Lyn enzyme (setting [1]) is not below 1 µM; on Lck enzyme (setting [2]), not below 1 µM; at Btk enzyme (His-Btk) (bin bound in nM), less than 10 nM.
With `CC#CC(=O)N1CCC[C@H]1c1nc(-c2ccc(C(=O)Nc3ccccn3)c(OC)c2)c2c(N)nccn12` [Example 99, (S)-4-(8-amino-3-(1-but-2-ynoylpyrrolidin-2-yl)imidazo[1,5-a]pyrazin-1-yl)-2-methoxy-N-(pyridin-2-yl)benzamide], the results for the pEC50 at Src enzyme, at FynT enzyme and on Btk enzyme (His-Btk) were not above 6.00, not above 6.00 and 7.00 to 8.00, respectively. The EC50 on Lyn enzyme (setting [1]) and on Lck enzyme (setting [2]) was not below 1 µM in each case. On Btk enzyme (His-Btk) (bin bound in nM), the “EC50 Btk activity values” is less than 100 nM.
For `CN(C)C/C=C/C(=O)N1CCCC[C@H]1c1nc(-c2ccc(C(=O)Nc3ccccn3)cc2)c2c(N)nccn12` [Example 78, (S,E)-4-(8-amino-3-(1-(4-(dimethylamino)but-2-enoyl)piperidin-2-yl)imidazo[1,5-a]pyrazin-1-yl)-N-(pyridin-2-yl)benzamide], the pEC50 at Src enzyme and on FynT enzyme was not above 6.00 in each case. In addition, the EC50 is not below 1 µM at Lyn enzyme (setting [1]), not below 1 µM at Lck enzyme (setting [2]) and less than 10 nM on Btk enzyme (His-Btk) (bin bound in nM).
For the compound `CCc1cnc(NC(=O)c2ccc(-c3nc([C@@H]4CCCCN4C(=O)/C=C/COC)n4ccnc(N)c34)cc2)s1` [Example 25, (S,E)-4-(8-Amino-3-(1-(4-methoxybut-2-enoyl)piperidin-2-yl)imidazo[1,5-a]pyrazin-1-yl)-N-(5-ethylthiazol-2-yl)benzamide], the pEC50 on Src enzyme and at FynT enzyme was not above 6.00 each time. Besides, the half-maximal effective concentration (EC50) on Lyn enzyme (setting [1]) is not below 1 µM; on Lck enzyme (setting [2]) it was not below 1 µM; on Btk enzyme (His-Btk) (bin bound in nM) it was less than 10 nM.
With `CC(C)c1ccnc(NC(=O)c2ccc(-c3nc([C@@H]4CCCN4C(=O)/C=C/CN(C)C)n4ccnc(N)c34)cc2)c1` [Example 65, (S,E)-4-(8-amino-3-(1-(4-(dimethylamino)but-2-enoyl)pyrrolidin-2-yl)imidazo[1,5-a]pyrazin-1-yl)-N-(4-isopropylpyridin-2-yl)benzamide], the pEC50 on Src enzyme and on FynT enzyme was not above 6.00 throughout. For the same compound, the EC50 is not below 1 µM on Lyn enzyme (setting [1]), not below 1 µM on Lck enzyme (setting [2]) and less than 10 nM on Btk enzyme (His-Btk) (bin bound in nM).
Regarding `CCc1ccnc(NC(=O)c2ccc(-c3nc([C@@H]4CCCN4C(=O)/C=C/COC)n4ccnc(N)c34)cc2)c1` [Example 11, (S,E)-4-(8-Amino-3-(1-(4-methoxybut-2-enoyl)pyrrolidin-2-yl)imidazo[1,5-a]pyrazin-1-yl)-N-(4-ethylpyridin-2-yl)benzamide], the pEC50 at Src enzyme was not above 6.00; on FynT enzyme, not above 6.00; at Btk enzyme (His-Btk), 7.00 to 8.00. Also, the EC50 on Lyn enzyme (setting [1]) and on Lck enzyme (setting [2]) was not below 1 µM throughout. For the same compound, on Btk enzyme (His-Btk) (bin bound in nM), the “EC50 Btk activity values” is on record as less than 100 nM.
For `C=CC(=O)N1CCC[C@H]1c1nc(-c2ccc(C(=O)Nc3ccccn3)c(F)c2)c2c(N)nccn12` [Example 13, (S)-4-(3-(1-acryloylpyrrolidin-2-yl)-8-aminoimidazo[1,5-a]pyrazin-1-yl)-2-fluoro-N-(pyridin-2-yl)benzamide], the pEC50 on Src enzyme and on FynT enzyme was not above 6.00 throughout. Also, the EC50 on Lyn enzyme (setting [1]) was not below 1 µM; on Lck enzyme (setting [2]), not below 1 µM; on Btk enzyme (His-Btk) (bin bound in nM), less than 10 nM.
